# Molecular target: protein kinase C
# Assay: inhibition of protein kinase C in vitro (protein kinase-induced incorporation of 32P from [γ-32P]ATP into histone)
# Type: biochemical
# Conditions: histone substrate, read-out: IC50: concentration which reduces by 50% the protein kinase-induced incorporation of ^32 P from [γ-^32 P]ATP into histone
# Source text: The IC50 figures in the following Table, represent that concentration of test compound which reduces by 50% the protein kinase-induced incorporation of ^32 P from [γ-^32 P]ATP into histone.
row,Compound,IC50 [nM]
1,"Cn1cc(C2=C(c3cn(CCCSC(=N)N)c4ccccc34)C(=O)NC2=O)c2ccccc21 [3-[1-[3-(amidinothio)propyl]-3-indolyl]-4-(1-methyl-3-indolyl)-1H-pyrrole-2,5-dione]",10
2,"Cn1cc(C2=C(c3cn(CCCN=C=S)c4ccccc34)C(=O)NC2=O)c2ccccc21 [3-[1-(3-isothiocyanatopropyl)-3-indolyl]-4-(1-methyl-3-indolyl)-1H-pyrrole-2,5-dione]",8
3,"Cn1cc(C2=C(c3cn(CCC(N)=O)c4ccccc34)C(=O)NC2=O)c2ccccc21 [3-[1-(2-carbamoylethyl)-3-indolyl]-4-(1-methyl-3-indolyl)-1H-pyrrole-2,5-dione]",500

# — patent USRE36736E, “Substituted pyrroles” (Hoffman-La Roche Inc., priority 1998, dated 2000)
